Experimental data reported in patent US20230332232A1, “COMPOSITIONS AND METHODS FOR DIAGNOSING AND TREATING A DYSTONIA” (Duke University, priority 2020, published 2023).

Tested on: DYT1 knockin (Tor1a^delGAG/+) murine embryonic fibroblasts (MEFs)
Experiment: Untargeted LC/MS/MS proteomics of EVs from DYT1 MEFs exposed 24 hours to drug, compared with untreated DYT1 (Het) MEFs
Format: cell-based, mouse
Description: Methods for isolation and purification of exosomes and extracellular vesicles (EV) were extensively reviewed. Experiments were performed to arrive at a robust and reproducible protocol. The protocol used herein is that set forth in Théry et al, 2006, which is incorporated by reference for it teaching of this protocol. This protocol involves depleting serum-derived EVs from cell culture media by overnight ultracentrifugation and exchanging media for 1% FBS EV-depleted media. Media is then collected from cells following a 24-hour conditioning period and EVs are isolated by 18-hour ultracentrifugation at 100,000 g (FIG. 1A).
EVs were isolated from media of cultured murine embryonic fibroblasts (MEFs) prepared in-house according to protocols described by Xu 2005 from DYT1 knockin mice (Tor1a^delGAG/+) (Goodchild R E, et al. (2005) Neuron. 48:923-932) and littermate wild-type (WT) controls. The cultured MEFs from the DYT1 mice were exposed for 24 hours to Ritonavir (RTV) while the MEFs from WT mice were exposed to vehicle, ISRIB, or Salubrinal (SAL). The EVs isolated from these WT cells and DYT1 were characterized by untargeted proteomics and RNA-seq to identify differentially expressed proteins and RNAs as candidate biomarkers. Experimenter and Proteomics core staff were blinded to genotype of cell cultures throughout preparation and analysis phases.
Samples were first normalized to 20 μg and spiked with undigested casein at a total of 40 fmol/μg, 80 fmol/μg, or 160 fmol/μg, then reduced with 10 mM dithiolthreitol for 30 minute at 80° C. and alkylated with 20 mM iodoacetamide for 30 minutes at room temperature. Next, the samples were supplemented with a final concentration of 1.2% phosphoric acid and 741 μL of S-Trap (Protifi) binding buffer (90% MeOH/100 mM […]). Proteins were trapped on the S-Trap, digested using 20 ng/μL sequencing grade trypsin (Promega) for 1 hour at 47° C., and eluted using 50 mM TEAB, followed by 0.2% FA, and lastly using 50% CAN/0.2% FA. All samples were then lyophilized to dryness and resuspended in 40 μL 1% TFA/2% acetonitrile containing 12.5 fmol/μL yeast alcohol dehydrogenase (ADH_YEAST). A QC Pool was created from 3 uL of each sample. All QC Pools were run periodically throughout the acquisition period.
Quantitative LC/MS/MS was performed on 2 μL of each sample, using a nanoAcquity UPLC system (Waters Corp) coupled to a Thermo Orbitrap Fusion Lumos high resolution accurate mass tandem mass spectrometer (Thermo) via a nanoelectrospray ionization source. Briefly, the sample was first trapped on a Symmetry C18 20 mm×180 μm trapping column (5 μL/min at 99.9/0.1 v/v water/acetonitrile), after which the analytical separation was performed using a 1.8 μm Acquity HSS T3 C18 75 μm×250 mm column (Waters Corp.) with a 90 minute linear gradient of 5% to 30% acetonitrile with 0.1% formic acid at a flow rate of 400 nanoliters/minute (nL/min) with a column temperature of 55° C. Data collection on the Fusion Lumos mass spectrometer was performed in a data-dependent acquisition (DDA) mode of acquisition with a r=120,000 (@ m/z 200) full MS scan from m/z 375-1500 with a target AGC value of 2e5 ions. MS/MS scans were acquired at Rapid scan rate (Ion Trap) with an AGC target of 5e3 ions and a max injection time of 100 ms. The total cycle time for MS and MS/MS scans was 2 seconds. A 20 second dynamic exclusion was employed to increase depth of coverage. The total analysis cycle time for each sample injection was approximately 2 hours.

## CC(C)c1nc(CN(C)C(=O)N[C@H](C(=O)N[C@@H](Cc2ccccc2)C[C@H](O)[C@H](Cc2ccccc2)NC(=O)OCc2cncs2)C(C)C)cs1 [RTV, Ritonavir]
DYT1 cells, 363 proteins of the DYT1 Genotype Dependent Differences subset
  direction of modulated EV protein expression: modulated expression in a therapeutic direction
EV protein A2AVA0 Sushi, von Willebrand factor type A, EGF and pentraxin domain-containing protein 1
  Abs Z Score Sum (Geno + RTV): 2.64
EV protein Akr1b1 (P45376)
  Abs Z Score Sum (Geno + RTV): 8.44
EV protein Aldh2 (P47738)
  Abs Z Score Sum (Geno + RTV): 25.29
  RTV Direction Opposite dE?: yes
EV protein C1qtnf3 (Q9..)
  Abs Z Score Sum (Geno + RTV): 6.95
EV protein Cnn3 (Q9DAW9)
  Abs Z Score Sum (Geno + RTV): 13.28
  RTV Direction Opposite dE?: yes
EV protein Cnot1 (Q6ZQ08)
  Abs Z Score Sum (Geno + RTV): 12.30
  RTV Direction Opposite dE?: yes
EV protein Col5A1 Q88207
  Abs Z Score Sum (Geno + RTV): 5.55
EV protein Coph2 Q55029
  Abs Z Score Sum (Geno + RTV): 9.40
EV protein Cryab (P23927)
  Abs Z Score Sum (Geno + RTV): 5.18
  RTV Direction Opposite dE?: yes
EV protein Cxadr (P97792)
  Abs Z Score Sum (Geno + RTV): 16.73
  RTV Direction Opposite dE?: yes
EV protein D3YXG0
  RTV Direction Opposite dE?: yes
EV protein Dars (Q922B2)
  RTV Direction Opposite dE?: yes
EV protein Dctn2 (Q99KJ8)
  RTV Direction Opposite dE?: yes
EV protein Ddx3x (Q62167)
  Abs Z Score Sum (Geno + RTV): 5.09
EV protein Ddx5 (Q61656)
  Abs Z Score Sum (Geno + RTV): 8.05
EV protein Ddx39b (Q9Z1N5)
  Abs Z Score Sum (Geno + RTV): 16.28
  RTV Direction Opposite dE?: yes
EV protein Dhx9 (Q70133)
  Abs Z Score Sum (Geno + RTV): 9.00
EV protein Dhx15 (Q35286)
  Abs Z Score Sum (Geno + RTV): 7.27
EV protein Efemp1 Q8BPB5
  Abs Z Score Sum (Geno + RTV): 8.34
EV protein Esyt1 (Q3U7R1)
  RTV Direction Opposite dE?: yes
EV protein Exoc4 (Q35382)
  Abs Z Score Sum (Geno + RTV): 14.59
  RTV Direction Opposite dE?: yes
EV protein Extended synaptotagmin-1 (Q3..)
  Abs Z Score Sum (Geno + RTV): 4.61
EV protein Fth1 P09528
  Abs Z Score Sum (Geno + RTV): 12.58
EV protein Fus (P56959)
  Abs Z Score Sum (Geno + RTV): 14.88
  RTV Direction Opposite dE?: yes
EV protein Gsto1 (Q09131)
  Abs Z Score Sum (Geno + RTV): 8.09
  RTV Direction Opposite dE?: yes
EV protein Hmen1 D3YXG0
  Abs Z Score Sum (Geno + RTV): 11.51
EV protein Hnrnpf (Q9Z2X1)
  RTV Direction Opposite dE?: yes
EV protein Hnrnph1 (Q35737)
  RTV Direction Opposite dE?: yes
EV protein Hnrnpl Q8R081
  Abs Z Score Sum (Geno + RTV): 9.12
EV protein Idh2 (P54071)
  Abs Z Score Sum (Geno + RTV): 26.73
EV protein Igf1r Q60751
  Abs Z Score Sum (Geno + RTV): 4.86
EV protein Impa1 (Q55023)
  RTV Direction Opposite dE?: yes
EV protein Ipo7 (Q9EPL8)
  Abs Z Score Sum (Geno + RTV): 5.25
  RTV Direction Opposite dE?: yes
EV protein Ipo11 (Q8K2V6)
  Abs Z Score Sum (Geno + RTV): 13.53
  RTV Direction Opposite dE?: yes
EV protein Itgb3 (Q54890)
  Abs Z Score Sum (Geno + RTV): 4.87
  RTV Direction Opposite dE?: yes
EV protein Itm2b Q89051
  Abs Z Score Sum (Geno + RTV): 17.16
EV protein Itpa (Q9D892)
  Abs Z Score Sum (Geno + RTV): 23.68
  RTV Direction Opposite dE?: yes
EV protein Kpna4 (Q35343)
  Abs Z Score Sum (Geno + RTV): 14.28
  RTV Direction Opposite dE?: yes
EV protein Lipg (Q9WVG5)
  Abs Z Score Sum (Geno + RTV): 11.27
EV protein Mdk (P12025)
  Abs Z Score Sum (Geno + RTV): 7.88
  RTV Direction Opposite dE?: yes
EV protein Mem2 P97310
  Abs Z Score Sum (Geno + RTV): 7.66
EV protein Mtap (Q9CQ65)
  Abs Z Score Sum (Geno + RTV): 8.12
EV protein Myo18a
  RTV Direction Opposite dE?: yes
EV protein Myo18a (Q9JM..)
  Abs Z Score Sum (Geno + RTV): 7.78
EV protein Nap114 Q78ZA7
  Abs Z Score Sum (Geno + RTV): 50.77
EV protein Nrbp1 (Q99..)
  Abs Z Score Sum (Geno + RTV): 9.54
EV protein Nrbp1 (Q99J45)
  RTV Direction Opposite dE?: yes
EV protein Otub1 (Q7TQ..)
  Abs Z Score Sum (Geno + RTV): 11.30
EV protein P09528, Ferritin heavy chain
  RTV Direction Opposite dE?: yes
EV protein P27612, Phospholipase A-2-activating protein
  RTV Direction Opposite dE?: yes
EV protein P48678 Prelamin-A C
  Abs Z Score Sum (Geno + RTV): 7.44
EV protein P61089, Ubiquitin-conjugating enzyme
  RTV Direction Opposite dE?: yes
EV protein Pdia4 (P08003)
  Abs Z Score Sum (Geno + RTV): 5.92
  RTV Direction Opposite dE?: yes
EV protein Penk (P22005)
  Abs Z Score Sum (Geno + RTV): 4.31
  RTV Direction Opposite dE?: yes
EV protein Plaa P27612
  Abs Z Score Sum (Geno + RTV): 12.45
EV protein Pld3 (Q35405)
  Abs Z Score Sum (Geno + RTV): 7.47
  RTV Direction Opposite dE?: yes
EV protein Prep Q9QUR6
  Abs Z Score Sum (Geno + RTV): 8.56
EV protein Prpf8 (Q99PV0)
  Abs Z Score Sum (Geno + RTV): 11.34
EV protein Psmd1 (Q3TXS7)
  Abs Z Score Sum (Geno + RTV): 7.84
EV protein Pura (P42669)
  Abs Z Score Sum (Geno + RTV): 6.04
  RTV Direction Opposite dE?: yes
EV protein Q6X893, Choline transporter-like protein 1
  RTV Direction Opposite dE?: yes
EV protein Q8BL97, Serine arginine-rich splicing factor 7
  RTV Direction Opposite dE?: yes
EV protein Q8C878, NEDD8-activating enzyme E1 catalytic subunit
  RTV Direction Opposite dE?: yes
EV protein Q8C878 NEDD8-activating enzyme .. subunit
  Abs Z Score Sum (Geno + RTV): 14.97
EV protein Q8CG19 Latent-transforming GF β-binding protein 1
  Abs Z Score Sum (Geno + RTV): 6.03
EV protein Q9D1M4 (Eukaryotic translation .. epsilon-1)
  Abs Z Score Sum (Geno + RTV): 20.67
EV protein Q9D1M4, Eukaryotic translation EF1 epsilon-1
  RTV Direction Opposite dE?: yes
EV protein Q9FS30, Complement C1q tumor necrosis factor-related protein 3
  RTV Direction Opposite dE?: yes
EV protein Q9Z1Z0, General vesicular transport factor p115
  RTV Direction Opposite dE?: yes
EV protein Q9Z2X1 Heterogeneous nuclear ribonucleoprotein E
  Abs Z Score Sum (Geno + RTV): 12.02
EV protein Q78ZA7, Nucelosome assembly protein 1-like 4
  RTV Direction Opposite dE?: yes
EV protein Q99KJ8 Dynactin subunit 2
  Abs Z Score Sum (Geno + RTV): 13.94
EV protein Q922B2 Aspartate--tRNA ligase
  Abs Z Score Sum (Geno + RTV): 12.17
EV protein Q01405 Protein transport protein .. 23A
  Abs Z Score Sum (Geno + RTV): 13.20
EV protein Q35737 Heterogeneous nuclear ribonucleoprotein H
  Abs Z Score Sum (Geno + RTV): 8.31
EV protein Q55023 Inositol monophosphatase 1
  Abs Z Score Sum (Geno + RTV): 14.51
EV protein Q60751, Insulin-like growth factor 1 receptor
  RTV Direction Opposite dE?: yes
EV protein Q60972 Histone-binding protein RBBP4
  Abs Z Score Sum (Geno + RTV): 18.10
EV protein Q89051, Integral membrane protein 2B
  RTV Direction Opposite dE?: yes
EV protein Qars (Q8BML9)
  Abs Z Score Sum (Geno + RTV): 13.17
  RTV Direction Opposite dE?: yes
EV protein Rab6a (P35279)
  Abs Z Score Sum (Geno + RTV): 6.80
  RTV Direction Opposite dE?: yes
EV protein Rbbp4 (Q60972)
  RTV Direction Opposite dE?: yes
EV protein Rpl22 (P67984)
  Abs Z Score Sum (Geno + RTV): 7.66
  RTV Direction Opposite dE?: yes
EV protein S100a11 (P50543)
  Abs Z Score Sum (Geno + RTV): 8.18
  RTV Direction Opposite dE?: yes
EV protein Scarb2 (Q35114)
  Abs Z Score Sum (Geno + RTV): 3.91
  RTV Direction Opposite dE?: yes
EV protein Sec23a (Q01405)
  RTV Direction Opposite dE?: yes
EV protein Sec31a (Q3..)
  Abs Z Score Sum (Geno + RTV): 8.41
EV protein Shrnt2 Q9CZN7
  Abs Z Score Sum (Geno + RTV): 11.93
EV protein Slc44a1 Q6X893
  Abs Z Score Sum (Geno + RTV): 3.67
EV protein Spp1 (P10923)
  Abs Z Score Sum (Geno + RTV): 11.35
